ChEMBL document CHEMBL1909046, “DrugMatrix in vitro pharmacology data”

Columns and labels:
[1] = DRUGMATRIX: Sodium/nucleoside co-transporter radioligand binding (ligand: nitrobenzylthioinosine); format: cell membranes, Cavia porcellus, Dunkin-Hartley, Cerebral cortex, Membrane; conditions: Not Active = under 50% inhibition at 10 µM
Leukotriene C4 synthase = target: T1, Leukotriene C4 synthase (Cavia porcellus, UniProt A6XA80); assay: biochemical; format: tissue-based, Lung;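 further: enzyme inhibition assay of leukotriene C4 synthase, using LTA4 as the substrate; in other assays of this panel Not Active means under 50% inhibition at 10 µM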
T1 sequence (A6XA80 whole entry): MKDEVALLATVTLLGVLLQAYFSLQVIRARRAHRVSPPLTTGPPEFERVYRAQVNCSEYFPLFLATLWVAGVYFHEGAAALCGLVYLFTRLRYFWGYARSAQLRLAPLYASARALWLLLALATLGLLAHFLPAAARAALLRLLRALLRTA

[2] = DRUGMATRIX: GABAA, Flunitrazepam, Central radioligand binding (ligand: [3H] Flunitrazepam); format: cell membranes, Rattus norvegicus, Wistar, Brain, Membrane; conditions: Not Active = under 50% inhibition at 10 µM
[3] = target: T2, Receptor-type tyrosine-protein phosphatase C (Homo sapiens, UniProt P08575); design: species or system Escherichia coli;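 further: inhibition of CD45 enzyme activity measured using DiFMUP as substrate; in other assays of this panel Not Active means under 50% inhibition at 10 µM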
T2 sequence (P08575 whole entry): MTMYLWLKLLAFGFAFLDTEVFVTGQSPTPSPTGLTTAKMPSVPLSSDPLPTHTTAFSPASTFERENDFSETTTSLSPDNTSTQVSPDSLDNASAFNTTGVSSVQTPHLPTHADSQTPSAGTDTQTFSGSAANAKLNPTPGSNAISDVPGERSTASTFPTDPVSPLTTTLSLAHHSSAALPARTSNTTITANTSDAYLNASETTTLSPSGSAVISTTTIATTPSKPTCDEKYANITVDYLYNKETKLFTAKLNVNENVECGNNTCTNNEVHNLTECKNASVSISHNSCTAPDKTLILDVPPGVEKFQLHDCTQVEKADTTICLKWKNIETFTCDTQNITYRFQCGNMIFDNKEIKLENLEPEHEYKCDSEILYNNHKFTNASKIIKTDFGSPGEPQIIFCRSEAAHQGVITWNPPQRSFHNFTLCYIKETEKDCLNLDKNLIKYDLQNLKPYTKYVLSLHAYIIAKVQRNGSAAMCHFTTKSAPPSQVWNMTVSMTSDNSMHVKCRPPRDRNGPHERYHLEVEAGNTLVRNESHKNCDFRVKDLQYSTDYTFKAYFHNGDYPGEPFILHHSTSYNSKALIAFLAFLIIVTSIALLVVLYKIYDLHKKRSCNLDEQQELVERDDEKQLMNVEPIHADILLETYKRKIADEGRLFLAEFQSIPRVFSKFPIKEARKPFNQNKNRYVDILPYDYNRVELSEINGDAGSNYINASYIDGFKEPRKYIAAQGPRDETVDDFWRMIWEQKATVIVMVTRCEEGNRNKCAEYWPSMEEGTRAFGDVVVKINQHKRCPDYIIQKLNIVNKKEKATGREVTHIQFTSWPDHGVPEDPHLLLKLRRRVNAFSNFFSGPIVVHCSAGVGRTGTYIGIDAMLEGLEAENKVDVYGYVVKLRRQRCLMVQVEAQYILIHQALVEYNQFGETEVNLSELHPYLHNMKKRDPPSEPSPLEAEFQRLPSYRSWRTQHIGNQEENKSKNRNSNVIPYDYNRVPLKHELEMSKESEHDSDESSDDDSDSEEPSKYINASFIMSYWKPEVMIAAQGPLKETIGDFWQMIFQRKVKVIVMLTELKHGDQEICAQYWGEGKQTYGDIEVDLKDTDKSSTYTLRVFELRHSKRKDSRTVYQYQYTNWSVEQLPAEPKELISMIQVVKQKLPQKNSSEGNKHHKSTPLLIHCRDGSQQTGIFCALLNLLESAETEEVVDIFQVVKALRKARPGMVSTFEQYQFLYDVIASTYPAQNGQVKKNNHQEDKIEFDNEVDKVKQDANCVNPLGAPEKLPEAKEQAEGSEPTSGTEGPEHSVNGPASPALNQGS

Interstitial collagenase = target: T3, Interstitial collagenase (Homo sapiens, UniProt P03956); assay: biochemical; format: tissue-based, Rheumatoid synovial fibroblasts;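 further: MMP-1 enzyme inhibition assay using a peptide substrate; in other assays of this panel Not Active means under 50% inhibition at 10 µM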
T3 sequence (P03956 whole entry): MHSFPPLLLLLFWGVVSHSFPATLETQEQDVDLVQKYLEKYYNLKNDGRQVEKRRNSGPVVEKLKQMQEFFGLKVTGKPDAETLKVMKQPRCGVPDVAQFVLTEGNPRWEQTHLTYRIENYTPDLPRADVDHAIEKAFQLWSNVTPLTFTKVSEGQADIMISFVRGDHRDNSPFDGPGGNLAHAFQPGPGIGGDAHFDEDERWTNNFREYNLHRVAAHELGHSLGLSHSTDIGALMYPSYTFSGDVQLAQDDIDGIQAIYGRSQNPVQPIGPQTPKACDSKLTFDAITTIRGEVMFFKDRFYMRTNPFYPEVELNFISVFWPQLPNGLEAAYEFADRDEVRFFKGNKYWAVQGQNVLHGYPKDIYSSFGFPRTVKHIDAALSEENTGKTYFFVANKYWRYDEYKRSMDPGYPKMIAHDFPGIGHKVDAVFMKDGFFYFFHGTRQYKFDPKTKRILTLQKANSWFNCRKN

[4] = DRUGMATRIX: Phosphodiesterase PDE3 enzyme inhibition (substrate: [3H]cAMP + cAMP); format: tissue-based, Homo sapiens; conditions: platelet, Not Active = under 50% inhibition at 10 µM

Row | Compound | IC50 [1] | Ki [1] | IC50 (Leukotriene C4 synthase) | IC50 [2] | Ki [2] | IC50 [3] | IC50 (Interstitial collagenase) | IC50 ([4]; read-out: IC50) [nM] | IC50 [4] | Ki [4] | IC50 (Leukotriene C4 synthase; read-out: IC50) [nM] | IC50 ([2]; read-out: IC50) [nM] | Ki ([2]; read-out: Ki) [nM] | Ki (Leukotriene C4 synthase) | Ki [3] | Ki (Interstitial collagenase)
1 | Cc1[nH]c(=O)c(C#N)cc1-c1ccncc1 [MILRINONE] | Not Active | Not Active | Not Active | Not Active | Not Active | Not Active | Not Active | 958 |  |  |  |  |  |  |  | 
2 | O=[As][O-].[Na+] [SODIUM ARSENITE] | Not Active | Not Active | Not Active | Not Active | Not Active | Not Active | Not Active |  | Not Active | Not Active |  |  |  |  |  | 
3 | COC(=O)Nc1nc2ccc(C(=O)c3ccccc3)cc2[nH]1 [MEBENDAZOLE] | Not Active | Not Active | Not Active | Not Active | Not Active | Not Active | Not Active |  | Not Active | Not Active |  |  |  |  |  | 
4 | CCOC(=O)C1=C(C)NC(C)=C(C(=O)OCC)C1c1ccccc1/C=C/C(=O)OC(C)(C)C [LACIDIPINE] | Not Active | Not Active | Not Active | Not Active | Not Active | Not Active | Not Active |  | Not Active | Not Active |  |  |  |  |  | 
5 | O=C(OC[C@H]1O[C@@H](OC(=O)c2cc(O)c(O)c(OC(=O)c3cc(O)c(O)c(O)c3)c2)[C@H](OC(=O)c2cc(O)c(O)c(OC(=O)c3cc(O)c(O)c(O)c3)c2)[C@@H](OC(=O)c2cc(O)c(O)c(OC(=O)c3cc(O)c(O)c(O)c3)c2)[C@@H]1OC(=O)c1cc(O)c(O)c(OC(=O)c2cc(O)c(O)c(O)c2)c1)c1cc(O)c(O)c(OC(=O)c2cc(O)c(O)c(O)c2)c1 [TANNIC ACID] | Not Active | Not Active |  | Not Active | Not Active | Not Active | Not Active | 714 |  |  | 2720 |  |  |  |  | 
6 | CC#C[C@]1(O)CC[C@H]2[C@@H]3CCC4=CC(=O)CCC4=C3[C@@H](c3ccc(N(C)C)cc3)C[C@@]21C [MIFEPRISTONE] | Not Active | Not Active | Not Active | Not Active | Not Active | Not Active | Not Active |  | Not Active | Not Active |  |  |  |  |  | 
7 | CC(O)C(=O)O (stereo unspecified) [LACTIC ACID] | Not Active | Not Active | Not Active | Not Active | Not Active | Not Active | Not Active |  | Not Active | Not Active |  |  |  |  |  | 
8 | Cc1ccnc(NS(=O)(=O)c2ccc(N)cc2)n1 [SULFAMERAZINE] | Not Active | Not Active | Not Active | Not Active | Not Active | Not Active | Not Active |  | Not Active | Not Active |  |  |  |  |  | 
9 | CC(C)(C)NC[C@H](O)COc1cccc2c1CCCC2=O [LEVOBUNOLOL] | Not Active | Not Active | Not Active | Not Active | Not Active | Not Active | Not Active |  | Not Active | Not Active |  |  |  |  |  | 
10 | CCOc1cc(N)c(Cl)cc1C(=O)NCC1CN(Cc2ccc(F)cc2)CCO1 (stereo unspecified) [MOSAPRIDE] | Not Active | Not Active | Not Active | Not Active | Not Active | Not Active | Not Active |  | Not Active | Not Active |  |  |  |  |  | 
11 | CC(=O)O[C@]1(C(C)=O)CC[C@H]2[C@@H]3C[C@H](C)C4=CC(=O)CC[C@]4(C)[C@H]3CC[C@@]21C [MEDROXYPROGESTERONE ACETATE] | Not Active | Not Active | Not Active |  |  | Not Active | Not Active |  | Not Active | Not Active |  | 7740 | 6300 |  |  | 
12 | OC[C@@H](O)[C@@H](O)[C@H](O)[C@H](O)CO [MANNITOL] | Not Active | Not Active | Not Active | Not Active | Not Active | Not Active | Not Active |  | Not Active | Not Active |  |  |  |  |  | 
13 | CC(Cl)(Cl)Cl [TRICHLOROETHANE] | Not Active | Not Active | Not Active | Not Active | Not Active | Not Active | Not Active |  | Not Active | Not Active |  |  |  |  |  | 
14 | LEAD(IV) ACETATE | Not Active | Not Active | Not Active | Not Active | Not Active | Not Active | Not Active |  | Not Active | Not Active |  |  |  | Not Active | Not Active | Not Active
15 | O=C(c1ccccc1)c1ccc2n1CCC2C(=O)O (stereo unspecified) [KETOROLAC] | Not Active | Not Active | Not Active | Not Active | Not Active | Not Active | Not Active |  | Not Active | Not Active |  |  |  |  |  | 
